Measured values published in patent US6921770B2 (priority 2000, dated 2005).

What follows are molecules tested on rice blast fungi.
Assay type: in vivo, Pyricularia grisea

First: Cc1ccc(NC(=O)Cc2csc(=Nc3ccc(Br)cc3)n2C)cc1Cl.Cl [Compound 229, 2-(4-bromophenylimino)-3-methyl-4-[N-(3-chloro-4-methylphenyl)carbamoylmethyl]-4-thiazoline hydrochloride]
Second: Cc1ccc(NC(=O)Cc2csc(=Nc3ccc(Cl)cc3)n2C)cc1Cl.Cl [Compound 233, 2-(4-chlorophenylimino)-3-methyl-4-[N-(3-chloro-4-methylphenyl)carbamoylmethyl]-4-thiazoline hydrochloride]
The “Inhibiting Ratio (%) (at 250 ppm)” value of the first is lower: 93% for the first, 97% for the second.

`Cc1ccc(NC(=O)Cc2csc(=Nc3cc(Cl)cc(Cl)c3)n2C)cc1Cl.Cl` [Compound 230, 2-(3,5-dichlorophenylimino)-3-methyl-4-[N-(3-chloro-4-methylphenyl)carbamoylmethyl]-4-thiazoline hydrochloride] and `Cc1ccc(NC(=O)Cc2csc(=Nc3ccc(F)c(Cl)c3)n2C)cc1Cl.Cl` [Compound 238, 2-(3-chloro-4-fluorophenylimino)-3-methyl-4-[N-(3-chloro-4-methylphenyl)carbamoylmethyl]-1,3-thiazol-4-ine hydrochloride] are the same in “Inhibiting Ratio (%) (at 250 ppm)” value: 93% for the first, 93% for the second.

Going from `Cc1ccc(NC(=O)Cc2csc(=Nc3ccc(OC(F)(F)F)cc3)n2C)cc1Cl.Cl` [Compound 231, 2-(4-trifluoromethoxyphenylimino)-3-methyl-4-[N-(3-chloro-4-methylphenyl)carbamoylmethyl]-4-thiazoline hydrochloride] to `Cc1ccc(NC(=O)Cc2csc(=Nc3ccc(Oc4ccccc4)cc3)n2C)cc1Cl.Cl` [Compound 240, 3-methyl-2-(4-phenoxyphenylimino)-4-[N-(3-chloro-4-methylphenyl)carbamoylmethyl]-1,3-thiazol-4-ine hydrochloride], the “Inhibiting Ratio (%) (at 250 ppm)” value falls from 93% to 88%.

`Cc1ccc(NC(=O)Cc2csc(=Nc3ccc(F)cc3F)n2C)cc1Cl.Cl` [Compound 232, 2-(2.4-difluorophenylimino)-3-methyl-4-[N-(3-chloro-4-methylphenyl)carbamoylmethyl]-4-thiazoline hydrochloride] and `Cc1ccc(NC(=O)Cc2csc(=Nc3ccccc3F)n2C)cc1Cl.Cl` [Compound 235, 2-(2-fluorophenylimino)-3-methyl-4-[N-(3-chloro-4-methylphenyl)carbamoylmethyl]-4-thiazoline hydrochloride] are the same in “Inhibiting Ratio (%) (at 250 ppm)” value: 92% for the first, 92% for the second.

Compared with `Cc1ccc(NC(=O)Cc2csc(=Nc3cccc(F)c3)n2C)cc1Cl.Cl` [Compound 236, 2-(3-fluorophenylimino)-3-methyl-4-[N-(3-chloro-4-methylphenyl)carbamoylmethyl]-1,3-thiazol-4-ine hydrochloride], `COc1ccc(C)cc1N=c1scc(CC(=O)Nc2ccc(C)c(Cl)c2)n1C.Cl` [Compound 239, 2-(2-methoxy-5-methylphenylimino)-3-methyl-4-[N-(3-chloro-4-methylphenyl)carbamoylmethyl]-1,3-thiazol-4-ine hydrochloride] is lower in “Inhibiting Ratio (%) (at 250 ppm)” value: 97% for the first, 92% for the second.

First: Cc1ccc(NC(=O)Cc2csc(=Nc3cc(OC(C)C)c(Cl)cc3F)n2C)cc1Cl.Cl [Compound 257, 2-(4chloro-2-fluoro-5-isopropoxyphenylimino)-3-methyl-4-[N-(3-chloro-4-methylphenyl)carbamoylmethyl]-1,3-thiazol-4-ine hydrochloride]
Second: Cl.O=C(Cc1csc(=Nc2ccc(F)cc2F)n1C1CC1)Nc1ccc(Br)cc1 [Compound 258, 2-(2,4-difluorophenylimino)-3-cyclopropyl-4-[N-(4-bromophenyl)carbamoylmethyl]-1,3-thiazol-4-ine hydrochloride]
The “Inhibiting Ratio (%) (at 250 ppm)” value of the first is lower: 88% for the first, 91% for the second.

With `Cc1ccc(N=c2scc(CC(=O)Nc3ccc(Br)cc3)n2C2CC2)c(C)c1.Cl` [Compound 263, 2-(2,4-dimethylphenylimino)-3-cyclopropyl-4-[N-(4-bromophenyl)carbamoylmethyl]-1,3-thiazol-4-ine hydrochloride] the “Inhibiting Ratio (%) (at 250 ppm)” value was 96%.
